In ChEMBL document CHEMBL3272101, “Antiviral activity of some beta-diketones. 4. Benzyl diketones. In vitro activity against both RNA and DNA viruses” (1978):
In brackets after ≈: the same amount, converted by molar mass. Activity calls are given as the source filed them. The rule behind the calls is not given here.

How the values were obtained:
Human alphaherpesvirus 2 = assay: Antiviral activity against Herpesvirus 2; format: functional
Human respirovirus 3 = assay: Antiviral activity against Parainfluenza virus 3; format: functional
Human alphaherpesvirus 1 [1] = assay: (§1) Antiviral activity against Herper simplex virus 1 Sheely infected in Blue Spruce mouse assessed as host survival time administered as 5% suspension in 1% gum tragacanth intravaginally, bid using cotton tampons treatment started 4 hrs post-infection for every 24 hrs and second treatment followed 6 hrs later for 7 days (reference value: >10.7 days); format: functional
Equine herpesvirus sp. [2] = assay: Antiviral activity Equine rhinovirus infected in monkey trachea assessed as log reduction in virus yield at 50 ug/ml; format: functional
Influenza A virus [3] = assay: Antiviral activity against Influenza A2 Japan 170 virus infected in ferret trachea assessed as reduction in virus yield at 50 ug/ml; format: functional; conditions: A2 Japan 170, Trachea, in Mustela putorius
[4] = tested on: Respiratory syncytial virus; assay: Antiviral activity against Respiratory syncytial virus; format: functional; conditions: human respiratory syncytial virus
Equine herpesvirus sp. [5] = assay: Antiviral activity Equine rhinovirus infected in monkey trachea assessed as log reduction in virus yield at 25 ug/ml; format: functional
rhinovirus A2 = assay: Antiviral activity against Human rhinovirus 2; format: functional; conditions: Rhinovirus A
Equine herpesvirus sp. [6] = assay: Antiviral activity Equine rhinovirus; format: functional
Human alphaherpesvirus 1 [7] = assay: Antiviral activity against Herpes simplex virus 1; format: functional
Influenza A virus [8] = assay: Antiviral activity against Influenza A2 Japan 170 virus infected in ferret trachea assessed as reduction in virus yield at 25 ug/ml; format: functional; conditions: A2 Japan 170, Trachea, in Mustela putorius
Human alphaherpesvirus 1 [9] = assay: as §1, with “rate” for “time”, “days measured 14 days post-infection” for “days”, “40%)” for “>10.7 days)”; format: functional
Human alphaherpesvirus 1 [10] = assay: as §1, with “rate” for “time”, “10%” for “5%”, “days measured 14 days post-infection” for “days”, “40%)” for “>10.7 days)”; format: functional
Human alphaherpesvirus 1 [11] = assay: as §1, with “10%” for “5%”; format: functional
[12] = Antiviral activity against Human rhinovirus 17; format: functional, Human rhinovirus B17; conditions: Rhinovirus B

For `CCC(=O)C(Cc1ccc(C)cc1)C(=O)CC`, the MIC (Human alphaherpesvirus 2) was “inactive”.

For `CCC(=O)C(Cc1ccc(OC)cc1Cl)C(=O)CC`, the MIC (Human alphaherpesvirus 2) was 50 µg/mL (≈ 177 µM).

For `CCC(=O)C(Cc1ccc(/C=C/c2ccccc2)cc1)C(=O)CC`, the MIC (Human alphaherpesvirus 2) was “inactive”.

`CCC(=O)C(Cc1ccc(CCc2ccc(OC)cc2)cc1)C(=O)CC` gave an MIC (Human alphaherpesvirus 2) of 3 µg/mL (≈ 8.51 µM).

In the case of `CCC(=O)C(Cc1ccc(O)cc1)C(=O)CC`, the MIC (Human alphaherpesvirus 2) is reported as “inactive”.

In the case of `CCC(=O)C(Cc1ccc(Oc2ccc(OC)cc2)cc1)C(=O)CC`, the MIC (Human alphaherpesvirus 2) is reported as 3 µg/mL (≈ 8.81 µM).

For `CCC(=O)C(Cc1ccc(/C=C/c2ccc(OC)cc2Cl)cc1)C(=O)CC`, the MIC (Human alphaherpesvirus 2) was 1.5 µg/mL (≈ 3.9 µM).

In the case of `CCC(=O)C(Cc1ccc(/C=C/c2ccc(Cl)cc2)cc1)C(=O)CC`, the MIC (Human alphaherpesvirus 2) is reported as “inactive”.

Work on `CCC(=O)C(Cc1ccc(Cc2ccc(O)cc2)cc1)C(=O)CC` yielded an MIC (Human alphaherpesvirus 2) of 3 µg/mL (≈ 9.25 µM).

Molecule `CCC(=O)C(Cc1ccc(Cc2ccccc2)cc1)C(=O)CC` has an MIC (Human alphaherpesvirus 2) of 6 µg/mL (≈ 19.5 µM).

For `CCC(=O)C(Cc1ccc(/C=C/c2ccc(OC)cc2)cc1)C(=O)CC`, the MIC (Human respirovirus 3) was 3 µg/mL (≈ 8.56 µM), the Time (Human alphaherpesvirus 1 [1]) was >11.3 days and the LCK (Equine herpesvirus sp. [2]) was 2. It also gave an inhibition at 50 µg/mL (Influenza A virus [3]) of 0%, an MIC [4] of 1.5 µg/mL (≈ 4.28 µM) and an LCK (Equine herpesvirus sp. [5]) of 1.7. The MIC (rhinovirus A2) was 0.2 µg/mL (≈ 0.571 µM), the MIC (Equine herpesvirus sp. [6]) was 0.06 µg/mL (≈ 0.171 µM) and the MIC (Human alphaherpesvirus 1 [7]) was 0.7 µg/mL (≈ 2 µM). For the same molecule, the inhibition at 25 µg/mL (Influenza A virus [8]) was 0%, the Survival (Human alphaherpesvirus 1 [9]) was 50% and the Survival (Human alphaherpesvirus 1 [10]) was 60%. For the same molecule, the Time (Human alphaherpesvirus 1 [11]) was >11.4 days, the MIC [12] was 0.3 µg/mL (≈ 0.856 µM) and the MIC (Human alphaherpesvirus 2) was 1.25 µg/mL (≈ 3.57 µM).

Work on `CCC(=O)C(Cc1ccc(/C=C/c2ccc(O)cc2Cl)cc1)C(=O)CC` yielded an MIC (Human alphaherpesvirus 2) of 1.5 µg/mL (≈ 4.04 µM).

Molecule `CCC(=O)C(C[C@H]1CC[C@@H](COc2ccc(OC)cc2Cl)CC1)C(=O)CC` has an MIC (Human alphaherpesvirus 2) of 6 µg/mL (≈ 15.2 µM).

In the case of `CCC(=O)C(Cc1ccc(/C=C/c2ccc(OC)cc2Cl)cc1Cl)C(=O)CC`, the MIC (Human alphaherpesvirus 2) is reported as “inactive”.

For `CCC(=O)C(Cc1ccc(Cc2ccc(OC)cc2)cc1)C(=O)CC`, the MIC (Human alphaherpesvirus 2) was 6 µg/mL (≈ 17.7 µM).

For `CCC(=O)C(CC1CCC(Cc2ccc(OC)cc2)CC1)C(=O)CC` (configuration not stated), the MIC (Human alphaherpesvirus 2) was 6 µg/mL (≈ 17.4 µM).

`CCC(=O)C(Cc1ccc(/C=C/c2ccc(O)cc2)cc1)C(=O)CC` showed an MIC (Human alphaherpesvirus 2) of 1.5 µg/mL (≈ 4.46 µM).

For `CCC(=O)C(Cc1ccc(OC)cc1)C(=O)CC`, the MIC (Human alphaherpesvirus 2) was “inactive”.
